The target in this assay is T1, human GR (Homo sapiens, UniProt P04150).
T1 construct: naturally expresses the human GR; endogenous in cells
T1 sequence (P04150 1-777): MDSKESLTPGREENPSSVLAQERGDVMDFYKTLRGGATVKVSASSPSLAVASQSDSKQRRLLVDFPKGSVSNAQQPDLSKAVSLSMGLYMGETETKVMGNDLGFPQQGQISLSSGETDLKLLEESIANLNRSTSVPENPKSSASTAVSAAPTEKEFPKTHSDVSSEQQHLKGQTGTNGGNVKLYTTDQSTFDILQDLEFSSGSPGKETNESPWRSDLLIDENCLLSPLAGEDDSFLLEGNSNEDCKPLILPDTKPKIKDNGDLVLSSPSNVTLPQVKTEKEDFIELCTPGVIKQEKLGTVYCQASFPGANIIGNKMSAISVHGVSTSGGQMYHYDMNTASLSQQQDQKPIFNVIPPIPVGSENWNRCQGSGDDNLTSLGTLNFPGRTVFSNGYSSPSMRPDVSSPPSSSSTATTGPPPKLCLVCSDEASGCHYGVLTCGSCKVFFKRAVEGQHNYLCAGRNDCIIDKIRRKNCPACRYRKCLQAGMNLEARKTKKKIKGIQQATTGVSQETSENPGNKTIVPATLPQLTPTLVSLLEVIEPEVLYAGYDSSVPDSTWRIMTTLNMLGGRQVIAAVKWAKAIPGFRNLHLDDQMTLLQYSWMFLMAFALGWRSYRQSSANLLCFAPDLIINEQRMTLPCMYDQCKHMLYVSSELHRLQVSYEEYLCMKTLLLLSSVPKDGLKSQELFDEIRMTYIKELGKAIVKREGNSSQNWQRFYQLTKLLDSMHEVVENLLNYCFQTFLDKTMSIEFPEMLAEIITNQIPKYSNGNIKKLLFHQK
Description: Trans-Activation Modulation of Glucocorticoid Receptor Assay (GRAMMER), MMTV-LUC reporter in A549 cells. In kind it is cell-based. The conditions noted are these: for Transactivation A549 Cells GRAMMER Emax (%): Emax relative to the activity obtained with 300 nM dexamethasone; for EC50: inflection point (IP), MMTV-LUC reporter, read-out: Transactivation A549 Cells GRAMMER IP; for Emax: A549, Emax relative to the activity obtained with 300 nM dexamethasone, read-out: Transactivation A549 Cells GRAMMER Emax (%). From the text: This assay assesses the ability of test compounds to control transcription from the MMTV-LUC reporter gene in lung adenocarcinoma A549 cells or HeLa cells, a human […] cell line that naturally expresses the human GR. The assay measures induction of a modified MMTV LTR/promoter linked to the LUC reporter gene.
The routine transient assay consists of plating 7,000-25,000 cells/well of a white, clear-bottom 96-well plate. Alternatively, 384-well plates can be used at a cell concentration of 10,000/well. The media that the cells are plated in is “exponential growth medium” which consists of phenol red-free RPMI1640 containing 10% FBS, 4 mM L-glutamine, 20 mM HEPES, 10 ug/mL human insulin, and 20 ug/mL gentamicin. Incubator conditions are 37° C. and 5% CO2. The transfection is done in batch mode. The cells are trypsinized and counted to the right cell number in the proper amount of fresh media. It is then gently mixed with the FuGene6/DNA mix and plated onto the 96 or 384-well plate, all the wells receive 100 uL or 40 uL, respectively, of medium+lipid/DNA complex then incubated 37° C. overnight. The transfection cocktail consists of serum-free OptiMEM, FuGene6 reagent and DNA. The manufacturer's (Roche Biochemical) protocol for cocktail setup is as follows: The lipid to DNA ratio is approximately 2.5:1 and the incubation time is 20 min at room temperature. Sixteen to 24 hours after transfection, the cells are treated with dexamethasone to a final concentration of 10 nM as well as the compound of interest, such that final DMSO (vehicle) concentration is equal to or less than 1%. Each plate also contains samples that are treated with 10 nM dexamethasone alone, which is used as the 100% activity control. The cells are exposed to the compounds for 24 hours. After 24 hours, the cells are lysed by a Promega cell culture lysis buffer for approximately 30 min and then the luciferase activity in the extracts is assayed in the 96-well format luminometer. In 384-well format, Steady-Glo (Promega) or Steady-Lite (PerkinElmer) can be used by adding an equal volume of reagent to the media present in each well. Activity induced by 10 nM dexamethasone alone is set at 100% activity. Antagonist activity is calculated by determining the decrease in dexamethasone-induced activity in response to compound treatment relative to samples that were treated with dexamethasone alone. Results are expressed as % inhibition of 10 nM dexamethasone activity or as fold of 10 nM dexamethasone activity. This transactivation assay can be performed in an agonist and antagonist mode to identify these different activities.
Activity of test compounds is calculated as the Emax relative to the activity obtained with 300 nM dexamethasone. Activity of test compounds is calculated as the Emax relative to the activity obtained with 300 nM DEX. The exemplified tissue selective glucocorticoid receptor modulators of the present invention display agonist activity in this assay of greater than 5% and less than 100%, and maximal transactivation activity less then maximal transrepression activity. […]

Molecules are shown by their SMILES.

Results on 27 compounds are retold here after patent publication US20120095055A1, “HEXAHYDROCYCLOPENTYL[f]INDAZOLE 5-HYDROXYMETHYL ETHANOLS AND DERIVATIVES THEREOF AS SELECTIVE GLUCOCORTICOID RECEPTOR MODULATORS” (Merck Sharp & Dohme, Corp., priority 2009, published 2012).

`C[C@]12Cc3cnn(-c4ccc(F)cc4)c3C=C1CC[C@@]2(CO)CC(O)c1ccccn1` (single isomer, unassigned) [Example 1a]: the “Transactivation A549 Cells GRAMMER Emax (%)” value turned out to be 83.9% and the EC50 worked out at 0.0056 µM.

As to `C[C@]12Cc3cnn(-c4ccc(F)cc4)c3C=C1CC[C@@]2(CO)CC(O)c1ccccn1` (single isomer, unassigned) [Example 1b], the “Transactivation A549 Cells GRAMMER Emax (%)” value is on record as 56.0% and the EC50 came out at 0.0264 µM.

As for `Cc1ccc(C(O)C[C@]2(CO)CCC3=Cc4c(cnn4-c4ccc(F)cc4)C[C@@]32C)cc1` (single isomer, unassigned) [Example 2a], the “Transactivation A549 Cells GRAMMER Emax (%)” value is on record as 46.6% and the EC50 amounted to 0.485 µM.

What is called Emax is the size of the effect at its maximum, as opposed to the concentration needed. As for `Cc1ccc(C(O)C[C@]2(CO)CCC3=Cc4c(cnn4-c4ccc(F)cc4)C[C@@]32C)cc1` (single isomer, unassigned) [Example 2b], the Emax stood at 45.5% and the EC50 stood at 0.316 µM.

For the compound `C[C@]12Cc3cnn(-c4ccc(F)cc4)c3C=C1CC[C@@]2(CO)CC(O)c1ccccc1Cl` (single isomer, unassigned) [Example 3a], the Emax came out at 127% and the EC50 was 0.0388 µM.

For `C[C@]12Cc3cnn(-c4ccc(F)cc4)c3C=C1CC[C@@]2(CO)CC(O)c1ccccc1Cl` (single isomer, unassigned) [Example 3b], the “Transactivation A549 Cells GRAMMER Emax (%)” value amounted to 130.3% and the EC50 stood at 0.0167 µM.

With `Cc1cccc(C(O)C[C@]2(CO)CCC3=Cc4c(cnn4-c4ccc(F)cc4)C[C@@]32C)c1` (single isomer, unassigned) [Example 5a], the Emax was 65.5% and the EC50 came to 0.0788 µM.

For `Cc1cccc(C(O)C[C@]2(CO)CCC3=Cc4c(cnn4-c4ccc(F)cc4)C[C@@]32C)c1` (single isomer, unassigned) [Example 5b], the “Transactivation A549 Cells GRAMMER Emax (%)” value is on record as 58.4% and the EC50 came out at 0.0236 µM.

As to `C[C@]12Cc3cnn(-c4ccc(F)cc4)c3C=C1CC[C@@]2(CO)CC(O)c1cc(F)cc(Cl)c1` (single isomer, unassigned) [Example 6a], the “Transactivation A549 Cells GRAMMER Emax (%)” value came to 62.4% and the EC50 came to 0.0305 µM.

Take `C[C@]12Cc3cnn(-c4ccc(F)cc4)c3C=C1CC[C@@]2(CO)CC(O)c1cc(F)cc(Cl)c1` (single isomer, unassigned) [Example 6b]: the “Transactivation A549 Cells GRAMMER Emax (%)” value is reported as 84.7% and the EC50 was 0.124 µM.

Regarding `C[C@]12Cc3cnn(-c4ccc(F)cc4)c3C=C1CC[C@@]2(CO)CC(O)c1cccc(C(F)(F)F)c1` (single isomer, unassigned) [Example 7a], the maximal effect (Emax) is 60.2% and the EC50 stood at 0.0588 µM.

For `C[C@]12Cc3cnn(-c4ccc(F)cc4)c3C=C1CC[C@@]2(CO)CC(O)c1cccc(C(F)(F)F)c1` (single isomer, unassigned) [Example 7b], the “Transactivation A549 Cells GRAMMER Emax (%)” value stood at 55.8% and the EC50 is 0.0393 µM.

For the compound `C[C@]12Cc3cnn(-c4ccc(F)cc4)c3C=C1CC[C@@]2(CO)CC(O)c1ncccc1F` (single isomer, unassigned) [Example 10a], the Emax is 56.6% and the EC50 was found to be 0.0237 µM.

For the compound `C[C@]12Cc3cnn(-c4ccc(F)cc4)c3C=C1CC[C@@]2(CO)CC(O)c1ncccc1F` (single isomer, unassigned) [Example 10b], the “Transactivation A549 Cells GRAMMER Emax (%)” value was found to be 67.0% and the EC50 was determined as 0.0124 µM.

Regarding `C[C@]12Cc3cnn(-c4ccc(F)cc4)c3C=C1CC[C@@]2(CO)CC1OC(=O)c2ccccc21` (single isomer, unassigned) [Example 12a], the Emax turned out to be 47.4% and the EC50 is 0.127 µM.

For `C[C@]12Cc3cnn(-c4ccc(F)cc4)c3C=C1CC[C@@]2(CO)CC1OC(=O)c2ccccc21` (single isomer, unassigned) [Example 12b], the “Transactivation A549 Cells GRAMMER Emax (%)” value came out at 54.2% and the EC50 came out at 0.0333 µM.

For the compound `C[C@]12Cc3cnn(-c4ccc(F)cc4)c3C=C1CC[C@@]2(CO)CC(O)c1ccccc1` (single isomer, unassigned) [Example 13a], the Emax is 73.1% and the EC50 turned out to be 0.0088 µM.

As for `C[C@]12Cc3cnn(-c4ccc(F)cc4)c3C=C1CC[C@@]2(CO)CC(O)c1ccccc1` (single isomer, unassigned) [Example 13b], the “Transactivation A549 Cells GRAMMER Emax (%)” value is 57.5% and the EC50 came to 0.0072 µM.

Regarding `CC(C)C(O)C[C@]1(CO)CCC2=Cc3c(cnn3-c3ccc(F)cc3)C[C@@]21C` (single isomer, unassigned) [Example 14a], the Emax was 25% and the EC50 was found to be 0.479 µM.

For the compound `CC(C)C(O)C[C@]1(CO)CCC2=Cc3c(cnn3-c3ccc(F)cc3)C[C@@]21C` (single isomer, unassigned) [Example 14b], the “Transactivation A549 Cells GRAMMER Emax (%)” value is listed as 32.6% and the EC50 is 0.206 µM.

Consider `C[C@]12Cc3cnn(-c4ccc(F)cc4)c3C=C1CC[C@@]2(CO)CC(O)c1cccnc1` (single isomer, unassigned) [Example 15a], for which the Emax is 52.7% and the EC50 was found to be 0.0681 µM.

Consider `C[C@]12Cc3cnn(-c4ccc(F)cc4)c3C=C1CC[C@@]2(CO)CC(O)c1cccnc1` (single isomer, unassigned) [Example 15b], for which the “Transactivation A549 Cells GRAMMER Emax (%)” value was 39.3% and the EC50 was 0.149 µM.

Consider `C[C@]12Cc3cnn(-c4ccc(F)cc4)c3C=C1CC[C@@]2(CO)CC(O)c1ccncc1` (single isomer, unassigned) [Example 17a], for which the Emax amounted to 26.4% and the EC50 stood at 0.101 µM.

As for `C[C@]12Cc3cnn(-c4ccc(F)cc4)c3C=C1CC[C@@]2(CO)CC(O)c1ccncc1` (single isomer, unassigned) [Example 17b], the “Transactivation A549 Cells GRAMMER Emax (%)” value was determined as 35.6% and the EC50 turned out to be 0.0775 µM.

As for `C[C@]12Cc3cnn(-c4ccc(F)cc4)c3C=C1CC[C@@]2(CO)CC(O)C1CCCCC1` (single isomer, unassigned) [Example 18a, 1-cyclohexyl-2-[(4αS)-1-(4-fluorophenyl)-5-(hydroxymethyl)-4α-methyl-1,4,4α,5,6,7-hexahydrocyclopenta[f]indazol-5-yl]ethanol], the Emax was found to be 55.3% and the EC50 turned out to be 0.0223 µM.

Regarding `C[C@]12Cc3cnn(-c4ccc(F)cc4)c3C=C1CC[C@@]2(CO)CC(O)C1CCCCC1` (single isomer, unassigned) [Example 18b, 1-cyclohexyl-2-[(4αS)-1-(4-fluorophenyl)-5-(hydroxymethyl)-4α-methyl-1,4,4α,5,6,7-hexahydrocyclopenta[f]indazol-5-yl]ethanol], the “Transactivation A549 Cells GRAMMER Emax (%)” value worked out at 56.2% and the EC50 is 0.0596 µM.

Take `C[C@]12Cc3cnn(-c4cccc(F)c4)c3C=C1CC[C@@]2(CO)CC(O)c1ccccn1` (single isomer, unassigned) [Example 19a]: the Emax turned out to be 43.7% and the EC50 was 0.0419 µM.
